{
  "source": "patent US9492471B2",
  "about": "“Methods of treating a disease or disorder associated with Bruton'S Tyrosine Kinase” (Celgene Avilomics Research, Inc., priority 2013, dated 2016)",
  "experiment_in_all_cases": "HotSpot kinase profiling",
  "type_in_all_cases": "biochemical",
  "key": {"[1]": {"target": "T1, HIPK4 (Homo sapiens, UniProt Q8NE63)", "T1 construct": "purchased Reaction Biology Corp", "T1 sequence (Q8NE63 1-616)": "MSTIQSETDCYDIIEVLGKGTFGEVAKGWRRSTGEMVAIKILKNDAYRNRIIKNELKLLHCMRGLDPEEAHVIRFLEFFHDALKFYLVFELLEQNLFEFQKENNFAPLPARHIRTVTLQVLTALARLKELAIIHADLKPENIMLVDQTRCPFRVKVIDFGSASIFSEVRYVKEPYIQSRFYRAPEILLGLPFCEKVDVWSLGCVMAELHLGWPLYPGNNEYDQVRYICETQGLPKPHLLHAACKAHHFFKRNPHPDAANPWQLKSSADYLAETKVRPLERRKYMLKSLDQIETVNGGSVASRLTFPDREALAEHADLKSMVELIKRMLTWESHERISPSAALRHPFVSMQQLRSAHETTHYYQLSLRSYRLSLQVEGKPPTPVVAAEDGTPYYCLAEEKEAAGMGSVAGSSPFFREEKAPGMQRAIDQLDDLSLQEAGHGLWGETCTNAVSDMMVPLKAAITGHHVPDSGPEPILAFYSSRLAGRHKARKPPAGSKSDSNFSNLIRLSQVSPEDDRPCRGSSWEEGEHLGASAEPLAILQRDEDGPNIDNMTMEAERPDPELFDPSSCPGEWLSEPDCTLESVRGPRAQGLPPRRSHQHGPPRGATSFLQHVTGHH", "in_short": "(§1)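 Radio-isotope P81 filtration format. Substrate + required cofactors in reaction buffer, kinase added, 2 h RT. Stop, wash with 0.1% phosphoric acid, detect. % inhibition vs DMSO; mean of duplicates where repeated.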"}, "[2]": {"target": "T2, BRK (Homo sapiens, UniProt Q13882)", "T2 construct": "purchased Reaction Biology Corp", "T2 sequence (Q13882 whole entry)": "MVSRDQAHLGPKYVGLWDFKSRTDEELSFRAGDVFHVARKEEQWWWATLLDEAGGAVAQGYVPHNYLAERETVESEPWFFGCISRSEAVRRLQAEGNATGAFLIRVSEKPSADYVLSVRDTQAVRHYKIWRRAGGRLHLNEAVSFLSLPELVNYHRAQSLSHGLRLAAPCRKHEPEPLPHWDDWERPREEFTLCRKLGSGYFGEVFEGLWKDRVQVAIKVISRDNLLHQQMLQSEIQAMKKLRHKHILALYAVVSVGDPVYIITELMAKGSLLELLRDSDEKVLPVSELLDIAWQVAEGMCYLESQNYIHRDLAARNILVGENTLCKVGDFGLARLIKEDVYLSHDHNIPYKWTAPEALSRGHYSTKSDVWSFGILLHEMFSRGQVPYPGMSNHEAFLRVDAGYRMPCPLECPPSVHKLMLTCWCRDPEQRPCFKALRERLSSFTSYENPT", "in_short": "as §1"}, "[3]": {"target": "T3, CK1g2 (Homo sapiens, UniProt P78368)", "T3 construct": "purchased Reaction Biology Corp", "T3 sequence (P78368 whole entry)": "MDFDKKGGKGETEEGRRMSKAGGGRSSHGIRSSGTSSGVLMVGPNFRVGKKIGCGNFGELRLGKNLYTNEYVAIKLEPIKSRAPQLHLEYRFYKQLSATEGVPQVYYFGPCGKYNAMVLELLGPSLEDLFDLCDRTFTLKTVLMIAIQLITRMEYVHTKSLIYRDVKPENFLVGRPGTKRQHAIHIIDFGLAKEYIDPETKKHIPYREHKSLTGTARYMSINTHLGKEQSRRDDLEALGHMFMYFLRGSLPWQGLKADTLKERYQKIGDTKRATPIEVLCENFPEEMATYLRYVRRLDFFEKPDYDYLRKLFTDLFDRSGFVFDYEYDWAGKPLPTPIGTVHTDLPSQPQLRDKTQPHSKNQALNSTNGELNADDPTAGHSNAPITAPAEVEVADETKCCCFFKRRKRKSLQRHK", "in_short": "as §1"}, "[4]": {"target": "T4, SIK3 (Homo sapiens, UniProt Q9Y2K2)", "T4 construct": "purchased Reaction Biology Corp", "T4 sequence (Q9Y2K2 whole entry)": "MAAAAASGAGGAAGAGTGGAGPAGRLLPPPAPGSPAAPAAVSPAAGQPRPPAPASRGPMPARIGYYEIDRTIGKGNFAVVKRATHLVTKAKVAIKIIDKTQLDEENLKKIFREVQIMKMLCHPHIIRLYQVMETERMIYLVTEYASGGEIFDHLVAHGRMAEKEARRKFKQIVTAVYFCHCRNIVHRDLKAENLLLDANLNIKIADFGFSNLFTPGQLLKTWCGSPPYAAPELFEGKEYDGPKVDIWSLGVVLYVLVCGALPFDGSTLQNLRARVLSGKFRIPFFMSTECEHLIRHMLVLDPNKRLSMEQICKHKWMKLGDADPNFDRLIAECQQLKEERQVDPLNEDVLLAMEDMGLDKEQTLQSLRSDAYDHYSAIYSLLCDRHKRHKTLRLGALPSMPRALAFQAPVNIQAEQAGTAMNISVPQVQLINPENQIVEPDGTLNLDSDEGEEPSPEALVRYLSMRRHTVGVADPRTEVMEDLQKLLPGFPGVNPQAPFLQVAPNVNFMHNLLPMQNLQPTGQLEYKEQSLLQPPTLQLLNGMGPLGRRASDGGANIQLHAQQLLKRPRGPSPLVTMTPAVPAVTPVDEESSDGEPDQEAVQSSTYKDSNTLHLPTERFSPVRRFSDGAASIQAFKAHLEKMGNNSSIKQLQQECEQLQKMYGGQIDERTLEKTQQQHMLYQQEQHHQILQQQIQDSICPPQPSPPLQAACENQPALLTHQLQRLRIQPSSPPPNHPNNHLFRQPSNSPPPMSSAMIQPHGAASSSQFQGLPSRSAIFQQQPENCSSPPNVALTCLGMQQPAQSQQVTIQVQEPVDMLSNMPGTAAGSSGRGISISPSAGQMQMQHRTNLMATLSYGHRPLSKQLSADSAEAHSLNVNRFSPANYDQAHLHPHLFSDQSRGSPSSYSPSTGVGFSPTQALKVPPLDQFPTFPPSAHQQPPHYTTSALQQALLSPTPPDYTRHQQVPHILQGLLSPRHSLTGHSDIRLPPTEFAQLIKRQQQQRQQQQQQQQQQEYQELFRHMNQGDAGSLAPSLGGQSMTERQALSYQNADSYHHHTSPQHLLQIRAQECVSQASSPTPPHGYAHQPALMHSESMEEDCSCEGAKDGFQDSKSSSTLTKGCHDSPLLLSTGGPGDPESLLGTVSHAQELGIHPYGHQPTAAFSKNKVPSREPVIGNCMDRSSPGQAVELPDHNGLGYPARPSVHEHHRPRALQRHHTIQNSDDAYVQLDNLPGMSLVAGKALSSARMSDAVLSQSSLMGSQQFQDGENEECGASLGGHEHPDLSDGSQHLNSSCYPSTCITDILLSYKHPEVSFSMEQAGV", "in_short": "as §1"}, "[5]": {"target": "T5, TEC (Homo sapiens, UniProt P42680)", "T5 construct": "purchased Reaction Biology Corp", "T5 sequence (P42680 1-631)": "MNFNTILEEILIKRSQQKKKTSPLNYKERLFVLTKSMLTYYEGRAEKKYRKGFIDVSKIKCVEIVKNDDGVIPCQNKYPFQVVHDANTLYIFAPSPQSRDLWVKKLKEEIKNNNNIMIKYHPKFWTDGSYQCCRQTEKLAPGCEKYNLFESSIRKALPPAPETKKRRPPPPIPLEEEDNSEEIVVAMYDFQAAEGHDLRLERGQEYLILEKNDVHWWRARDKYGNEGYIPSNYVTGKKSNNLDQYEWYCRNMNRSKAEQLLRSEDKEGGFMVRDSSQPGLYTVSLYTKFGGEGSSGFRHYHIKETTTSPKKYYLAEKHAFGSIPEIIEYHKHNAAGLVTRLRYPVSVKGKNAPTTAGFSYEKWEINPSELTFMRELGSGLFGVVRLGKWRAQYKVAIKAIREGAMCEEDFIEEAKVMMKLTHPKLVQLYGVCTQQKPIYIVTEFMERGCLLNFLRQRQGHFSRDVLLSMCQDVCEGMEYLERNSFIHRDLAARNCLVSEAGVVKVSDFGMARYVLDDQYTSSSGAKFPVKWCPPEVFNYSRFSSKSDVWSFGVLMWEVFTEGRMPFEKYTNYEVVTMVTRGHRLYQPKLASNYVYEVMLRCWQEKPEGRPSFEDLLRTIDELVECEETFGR", "in_short": "as §1"}, "[6]": {"conditions": "read-out: % Enzyme Activity (relative to DMSO controls) Run 1"}, "[7]": {"conditions": "read-out: % Enzyme Activity (relative to DMSO controls) Run 2"}},
  "note": "Read-outs that look alike come from different tables or passages of the source.",
  "data": [
    {"smiles": "C=CC(=O)Nc1cccc(Nc2nc(Nc3ccc(OCCOC)c(F)c3)ncc2F)c1", "note": "[Compound 2]", "values": [
      {"measurement": "inhibition at 3 µM", "setting": "[1]", "result": 6.31, "unit": "%"},
      {"measurement": "remaining activity at 3 µM", "setting": "[1]; [6]", "result": 93.6, "unit": "%"},
      {"measurement": "remaining activity at 3 µM", "setting": "[1]; [7]", "result": 93.8, "unit": "%"},
      {"measurement": "inhibition at 3 µM", "setting": "[2]", "result": 75, "unit": "%"},
      {"measurement": "remaining activity at 3 µM", "setting": "[2]; [6]", "result": 25.1, "unit": "%"},
      {"measurement": "remaining activity at 3 µM", "setting": "[2]; [7]", "result": 25, "unit": "%"},
      {"measurement": "inhibition at 3 µM", "setting": "[3]", "result": 12.6, "unit": "%"},
      {"measurement": "remaining activity at 3 µM", "setting": "[3]; [6]", "result": 89.1, "unit": "%"},
      {"measurement": "remaining activity at 3 µM", "setting": "[3]; [7]", "result": 85.7, "unit": "%"},
      {"measurement": "inhibition at 3 µM", "setting": "[4]", "result": 7.93, "unit": "%"},
      {"measurement": "remaining activity at 3 µM", "setting": "[4]; [6]", "result": 91.3, "unit": "%"},
      {"measurement": "remaining activity at 3 µM", "setting": "[4]; [7]", "result": 92.8, "unit": "%"},
      {"measurement": "inhibition at 3 µM", "setting": "[5]", "result": 89.1, "unit": "%"},
      {"measurement": "remaining activity at 3 µM", "setting": "[5]; [6]", "result": 10.4, "unit": "%"},
      {"measurement": "remaining activity at 3 µM", "setting": "[5]; [7]", "result": 11.5, "unit": "%"}
    ]}
  ]
}
